Measurements reported in PubChem BioAssay AID1918945 (Molecular Pharmacology Branch, DTP, NCI, 2023).
“And” between values parts separate entries of the source, which are not always exact repeats. Identical values can stand only once.

System: 883617-216-R-J1-PDC complex spheroid viability
Assay: Anticancer human tumor 883617-216-R-J1-PDC patient-derived bladder carcinoma cell line growth inhibition
Settings: for viability, T/C: stronger effect = lower value; for IC50: curve of compound
Excerpt: Multicellular complex tumor spheroid response to LSD1 Inhibitor Iadademstat in combination with a variety of drugs and investigational agents in selected tumor cell lines
The current study was undertaken to assess response to LSD1 inhibitors in combination with standard-of-care drugs and investigational agents in solid tumor complex spheroid models as well as in the K-562 leukemia. Complex spheroids include a stromal component modeled by human endothelial cells (HUVEC) and fibroblasts modeled by human mesenchymal stem cells (MSCs). The concentration ranges selected for each drug and investigational agent were based upon clinically achievable concentrations if the clinical Cmax of the agent was known.
Compounds. The drugs and investigational agents used in this study are listed on Table 1. All of the agents used, including staurosporine (NSC755774) and gemcitabine (NSC613327), were obtained from the Developmental Therapeutics Program, NCI. FDA-approved anticancer drugs are available from the NCI at http://dtp.nci.nih.gov/branches/dscb/oncology_drugset_explanation.html. Drugs and investigational agents were >95% pure by proton nuclear magnetic resonance (NMR) and liquid chromatography/mass spectrometry (LC/MS). Stock solutions were prepared at 400x in DMSO, stored at -70 degrees C, and diluted in fresh medium prior to their use. The final concentration of DMSO in cell culture wells never exceeded 0.25% (v/v). The FDA-approved anticancer drug set is available from the Developmental Therapeutics Program at https://dtp.cancer.gov/organization/dscb/obtaining/available_plates.htm. All drugs and investigational agents were tested over a range starting from a high concentration at or near the clinical Cmax and decreasing in half-log increments. If the clinical Cmax for an agent had not been determined, the highest concentration tested was 10 microM.
Cell Lines. The patient-derived cancer cell (PDC) lines: 292921-168-R-J2-PDC, K24384-001-R-PDC, and 521955-158-R2-J5-PDC pancreatic carcinomas, 556581-035-R-J1 ovarian carcinoma, 324938-238-R-J1-PDC, 855422-203-R-J1-PDC and 883617-216-R-J1-PDC urothelial bladder carcinomas, 743489-274-T-PDC renal cell carcinoma, 138582-R-J1 Merkel cell tumor, K60290-347-R-J1 and K57222-313-R-J1-PDC glioblastomas, 653999-131-R-J2-PDC, LG0703-F948-PDC, and 349418-098-R-PDC non-small cell lung carcinomas, 885512-296-R-J2-PDC, 171881-019-R-J1-PDC breast carcinomas and 186277-243-T-J2-PDC and 233499-124-R-J2-PDC colon carcinomas were obtained from the NCI Patient-Derived Models Repository (PDMR, https://pdmr.cancer.gov). The established cell lines NCI/ADR-RES (RRID:CVCL_14520 and OVCAR-5 (RRID:CVCL_1628) ovarian carcinomas, 786-O (RRID:CVCL_1051) and A498 (RRID:CVCL_A498) renal cell carcinoma, NCI-H211 (ATCC, cat. CRL-5824; RRID:CVCL_1529), NCI-H196 (ATCC, cat. CRL-5823, RRID:CVCL_1509), SW 1271 (ATCC, cat. CRL-2177, RRID:CVCL_1716) and NCI-H1876 (ATCC, cat. CRL-5902, RRID:CVCL_1503) small cell lung carcinomas, MDA-MB-231 (RRID:CVCL_0062) and MDA-MB-468 (RRID:CVCL_0419)breast carcinomas (10-12). Pooled donor human umbilical vein endothelial cells (HUVEC, Lonza, cat. CC-2519) and human mesenchymal stem cells (hMSC, Lonza, cat. PT-2501) were purchased from Lonza (Walkersville, MD).
Cell Culture. All cells were maintained in an incubator at 37 degrees C and 5% CO2 with 95% humidity. The PDC lines were cultured according to standard operating procedures established by the NCI PDMR (https://pdmr.cancer.gov). Briefly all PDCs were thawed and cultured in Matrigel-coated flasks prepared with a working solution of 1X Ham's F-12 nutrient mix, without supplementation (Invitrogen, Waltham, MA, cat. 11765054), 100 U/mL penicillin-streptomycin (Invitrogen, cat. 15140122), and 2.5% Matrigel (Corning Inc., Corning, NY, cat. 354248) for the first three passages. […]
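Also: exposure lasted seven days after three days of spheroid growth.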
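For viability, T/C in this document: 100% = DMSO vehicle control luminescence.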

Row | Compound | viability, T/C (compound 0.000316 µM) | viability, T/C (compound 0.001 µM) | viability, T/C (compound 0.00316 µM) | viability, T/C (compound 0.01 µM) | viability, T/C (compound 0.0316 µM) | viability, T/C (compound 0.1 µM) | IC50 | viability, T/C (compound 0.316 µM) | viability, T/C (compound 1 µM) | viability, T/C (compound 0.000949 µM) | viability, T/C (compound 0.003 µM) | viability, T/C (compound 0.00949 µM) | viability, T/C (compound 0.03 µM) | viability, T/C (compound 0.0949 µM) | viability, T/C (compound 0.3 µM) | viability, T/C (compound 0.949 µM) | viability, T/C (compound 3 µM)
1 | CC(C)CC(NC(=O)C(Cc1ccccc1)NC(=O)c1cnccn1)B(O)O (stereo not drawn) | 103% and 98.5% | 95.8% and 43.5% | 13.8% and 0.88% | 1.11% and 0.16% | 1.27% and 0.13% | 0.62% and 0.21% | 1.9 nM and 0.872 nM |  |  |  |  |  |  |  |  |  | 
2 | CC(C)CC(NC(=O)CNC(=O)c1cc(Cl)ccc1Cl)B1OC(=O)CC(CC(=O)O)(C(=O)O)O1 (stereo not drawn) | 101% and 95.7% | 106% and 87% | 85% and 52.1% | 39.5% and 23.1% | 15.8% and 1.76% | 2.31% and 0.36% | 7.91 nM and 3.68 nM |  |  |  |  |  |  |  |  |  | 
3 | CC1COCCN1c1cc(-c2ccnn2C)c2ccnc(-c3ccn[nH]3)c2n1 (stereo not drawn) |  |  | 83.2% and 50.8% | 64.8% and 42.2% | 47% and 33.7% | 35% and 27.4% | 26.5 nM and 3.53 nM | 34.6% and 23.9% | 26.3% and 21.2% |  |  |  |  |  |  |  | 
4 | CC[C@@]1(O)C(=O)OCc2c1cc1n(c2=O)Cc2cc3c(CN(C)C)c(O)ccc3nc2-1 | 95.7% and 78.2% | 78.1% and 65.8% | 60.2% and 37.7% | 38.6% and 29.1% | 39.1% and 27.6% | 27.7% and 20% | 5.86 nM and 1.95 nM |  |  |  |  |  |  |  |  |  | 
5 | CCc1c2c(nc3ccc(O)cc13)-c1cc3c(c(=O)n1C2)COC(=O)[C@]3(O)CC |  |  |  |  |  |  | < 0.949 nM |  |  | 34.5% and 24.9% | 27.7% and 18.2% | 22.8% and 18.7% | 24.2% and 13% | 1.74% and 0.3% | 0.21% and 0.19% |  | 
6 | COc1cc(C2c3cc4c(cc3C(OC3OC5COC(C)OC5C(O)C3O)C3COC(=O)C23)OCO4)cc(OC)c1O (stereo not drawn) |  |  |  |  |  |  | 198 nM and 87.6 nM |  |  |  |  | 94.6% and 80.4% | 99.6% and 65.2% | 64.6% and 46.6% | 45.4% and 38.4% | 44.4% and 41.1% | 35.4% and 29.4%
7 | COc1cc(Nc2ncc3c(n2)-c2ccc(Cl)cc2C(c2c(F)cccc2OC)=NC3)ccc1C(=O)O |  |  | 99.2% and 68.6% | 73.5% and 63.5% | 53.3% and 44% | 49% and 36.2% | 66.9 nM and 22.3 nM | 45.1% and 34.5% | 48.5% and 34.6% |  |  |  |  |  |  |  | 
8 | Cn1ncnc1C1c2n[nH]c(=O)c3cc(F)cc(c23)NC1c1ccc(F)cc1 (stereo not drawn) | 104% and 89.5% | 104% and 89.1% | 105% and 70.6% | 75.7% and 48.9% | 64.4% and 38.5% | 54.2% and 38% |  |  |  |  |  |  |  |  |  |  | 
9 | NS(=O)(=O)OCC1CC(n2ccc3c(NC4CCc5ccccc54)ncnc32)CC1O (stereo not drawn) |  |  |  |  |  |  | 395 nM and 204 nM |  |  |  |  | 105% and 114% | 120% and 108% | 103% and 94.9% | 59.1% and 27.2% | 21.5% and 8.78% | 14% and 6.66%
10 | Nc1ccccc1NC(=O)c1ccc(CNC(=O)OCc2cccnc2)cc1 |  |  |  |  |  |  | 167 nM and 163 nM |  |  |  |  | 110% and 105% | 94.2% and 104% | 64.6% and 56.3% | 33.3% and 36% | 15.7% and 17.6% | 0.87% and 1.11%
11 | Nc1ccn(C2OC(CO)C(O)C2(F)F)c(=O)n1 (stereo not drawn) |  |  |  |  |  |  | < 0.949 nM |  |  | 24.4% and 23% | 20.5% and 20.8% | 21.2% and 23% | 23.5% and 25.3% | 23.3% and 24.1% | 21.9% and 23.4% |  | 
12 | Nc1ncn(C2CC(O)C(CO)O2)c(=O)n1 (stereo not drawn) |  |  | 103% and 98.2% | 99.5% and 83.4% | 96.5% and 72.9% | 86.3% and 58.4% | > 1000 nM and 870 nM | 73.2% and 54.2% | 67.8% and 49.4% |  |  |  |  |  |  |  | 
13 | Nc1ncn(C2CC(O)C(CO)S2)c(=O)n1 (stereo not drawn) |  |  |  |  |  |  |  |  |  | 108% and 85.9% | 105% and 77% | 87.3% and 55.7% | 69% and 39.4% | 58% and 34.1% | 44% and 27.4% |  | 
14 | O=C(C=Cc1cccc(S(=O)(=O)Nc2ccccc2)c1)NO |  |  |  |  |  |  | 158 nM and 66 nM |  |  |  |  | 97.1% and 80.1% | 76.2% and 59% | 51.9% and 41.6% | 38.6% and 33.9% | 28.6% and 14.6% | 3.45% and 0.83%
15 | O=C(C=Cn1cnc(-c2cc(C(F)(F)F)cc(C(F)(F)F)c2)n1)NNc1cnccn1 |  |  | 87.2% and 64.4% | 56.7% and 27.2% | 35.6% and 23.6% | 31.5% and 16.4% | 14.6 nM and 5.02 nM | 28.4% and 14.6% | 23.4% and 14.3% |  |  |  |  |  |  |  | 
